# Measurements taken from ChEMBL document CHEMBL4699602, “Stapled and Xenopus Glucagon-Like Peptide 1 (GLP-1)-Based Dual GLP-1/Gastrin Receptor Agonists with Improved Metabolic Benefits in Rodent Models of Obesity and Diabetes” (J Med Chem, 2020).
# Where a SMILES comes first, the peptide text is derived from it.
# Target: Glucagon-like peptide 1 receptor (Homo sapiens, UniProt P43220)
# Test: Agonist activity at human GLP-1R expressed in HEK293 cells assessed as stimulation of cAMP accumulation incubated for 20 mins
# Format: functional, cell-based
# Chain of Glucagon-like peptide 1 receptor (P43220 whole entry): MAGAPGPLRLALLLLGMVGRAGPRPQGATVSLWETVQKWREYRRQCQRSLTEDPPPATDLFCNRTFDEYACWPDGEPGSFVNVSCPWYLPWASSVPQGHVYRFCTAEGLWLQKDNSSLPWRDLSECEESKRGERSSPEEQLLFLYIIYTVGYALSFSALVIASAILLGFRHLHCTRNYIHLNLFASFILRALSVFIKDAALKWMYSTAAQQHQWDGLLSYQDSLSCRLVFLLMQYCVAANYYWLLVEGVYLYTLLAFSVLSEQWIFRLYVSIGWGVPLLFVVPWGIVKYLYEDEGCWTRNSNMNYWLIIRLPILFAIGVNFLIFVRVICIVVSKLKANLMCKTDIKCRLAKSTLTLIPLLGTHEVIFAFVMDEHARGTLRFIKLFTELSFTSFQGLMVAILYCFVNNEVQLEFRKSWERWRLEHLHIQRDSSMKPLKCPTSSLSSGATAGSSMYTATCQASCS
row,Compound,EC50
1,CC[C@H](C)[C@H](NC(=O)[C@H](CS)NC(=O)[C@H](CCC(=O)O)NC(=O)[C@H](CCCCN)NC(=O)[C@H](C)NC(=O)[C@H](C)NC(=O)[C@H](CCC(=O)O)NC(=O)[C@H](CCC(=O)O)NC(=O)[C@H](CCC(=O)O)NC(=O)[C@H](CC(C)C)NC(=O)[C@H](Cc1ccc(O)cc1)NC(=O)[C@H](CCC(=O)O)NC(=O)[C@@H](NC(=O)[C@@H](NC(=O)[C@H](CC(=O)O)NC(=O)[C@H](CC(N)=O)NC(=O)[C@@H](NC(=O)[C@H](Cc1ccc(O)cc1)NC(=O)[C@@H](NC(=O)CNC(=O)[C@H](CCC(=O)O)NC(=O)C(C)(C)NC(=O)[C@@H](N)Cc1c[nH]cn1)[C@@H](C)O)[C@@H](C)O)C(C)C)[C@@H](C)O)C(=O)N[C@@H](CCC(=O)O)C(=O)N[C@@H](Cc1c[nH]c2ccccc12)C(=O)N[C@@H](CC(C)C)C(=O)N[C@H](C(=O)N[C@@H](CCCCN)C(=O)N[C@@H](CS)C(=O)N[C@@H](CCCCN)C(=O)N1CCC[C@H]1C(=O)N[C@@H](CO)C(=O)N[C@@H](CO)C(=O)NCC(=O)N[C@@H](C)C(=O)N1CCC[C@H]1C(=O)N1CCC[C@H]1C(=O)N1CCC[C@H]1C(=O)N[C@@H](CO)C(N)=O)[C@@H](C)CC (HELM PEPTIDE1{H.[Aib].E.G.T.Y.T.N.D.V.T.E.Y.L.E.E.E.A.A.K.E.C.I.E.W.L.I.K.C.K.P.S.S.G.A.P.P.P.S.[am]}$$$$V2.0),0.16 nM
2,CC[C@H](C)[C@H](NC(=O)[C@H](CC(C)C)NC(=O)[C@H](Cc1c[nH]c2ccccc12)NC(=O)[C@H](CCC(=O)O)NC(=O)[C@@H](NC(=O)[C@H](CS)NC(=O)[C@H](CCC(=O)O)NC(=O)[C@H](CCCCN)NC(=O)[C@H](C)NC(=O)[C@H](C)NC(=O)[C@H](CCC(=O)O)NC(=O)[C@H](CCC(=O)O)NC(=O)[C@H](CCC(=O)O)NC(=O)[C@H](CC(C)C)NC(=O)[C@H](Cc1ccc(O)cc1)NC(=O)[C@H](CCC(=O)O)NC(=O)[C@@H](NC(=O)[C@@H](NC(=O)[C@H](CC(=O)O)NC(=O)[C@H](CC(N)=O)NC(=O)[C@@H](NC(=O)[C@H](Cc1ccc(O)cc1)NC(=O)[C@@H](NC(=O)CNC(=O)[C@H](CCC(=O)O)NC(=O)C(C)(C)NC(=O)[C@@H](N)Cc1c[nH]cn1)[C@@H](C)O)[C@@H](C)O)C(C)C)[C@@H](C)O)[C@@H](C)CC)C(=O)N[C@@H](CCCCN)C(=O)N[C@@H](CS)C(=O)N[C@@H](CCCCN)C(N)=O (HELM PEPTIDE1{H.[Aib].E.G.T.Y.T.N.D.V.T.E.Y.L.E.E.E.A.A.K.E.C.I.E.W.L.I.K.C.K.[am]}$$$$V2.0),0.45 nM
3,CC[C@H](C)[C@H](NC(=O)[C@H](CC(C)C)NC(=O)[C@H](Cc1c[nH]c2ccccc12)NC(=O)[C@H](CCC(=O)O)NC(=O)[C@H](CS)NC(=O)[C@H](Cc1ccccc1)NC(=O)[C@H](CCC(=O)O)NC(=O)[C@H](CCCCN)NC(=O)[C@H](C)NC(=O)[C@H](C)NC(=O)[C@H](CCC(=O)O)NC(=O)[C@H](CCC(=O)O)NC(=O)[C@H](CCC(=O)O)NC(=O)[C@H](CC(C)C)NC(=O)[C@H](Cc1ccc(O)cc1)NC(=O)[C@H](CCC(=O)O)NC(=O)[C@@H](NC(=O)[C@@H](NC(=O)[C@H](CC(=O)O)NC(=O)[C@H](CC(N)=O)NC(=O)[C@@H](NC(=O)[C@H](Cc1ccc(O)cc1)NC(=O)[C@@H](NC(=O)CNC(=O)[C@H](CCC(=O)O)NC(=O)C(C)(C)NC(=O)[C@@H](N)Cc1c[nH]cn1)[C@@H](C)O)[C@@H](C)O)C(C)C)[C@@H](C)O)C(=O)N[C@@H](CCCCN)C(=O)NCC(=O)N[C@@H](CS)C(=O)N1CCC[C@H]1C(=O)N[C@@H](CO)C(=O)N[C@@H](CO)C(=O)NCC(=O)N[C@@H](C)C(=O)N1CCC[C@H]1C(=O)N1CCC[C@H]1C(=O)N1CCC[C@H]1C(=O)N[C@@H](CO)C(N)=O (HELM PEPTIDE1{H.[Aib].E.G.T.Y.T.N.D.V.T.E.Y.L.E.E.E.A.A.K.E.F.C.E.W.L.I.K.G.C.P.S.S.G.A.P.P.P.S.[am]}$$$$V2.0),0.21 nM
4,CC[C@H](C)[C@H](NC(=O)[C@H](CC(C)C)NC(=O)[C@H](Cc1c[nH]c2ccccc12)NC(=O)[C@H](CCC(=O)O)NC(=O)[C@H](CS)NC(=O)[C@H](Cc1ccccc1)NC(=O)[C@H](CCC(=O)O)NC(=O)[C@H](CCCCN)NC(=O)[C@H](C)NC(=O)[C@H](C)NC(=O)[C@H](CCC(=O)O)NC(=O)[C@H](CCC(=O)O)NC(=O)[C@H](CCC(=O)O)NC(=O)[C@H](CC(C)C)NC(=O)[C@H](Cc1ccc(O)cc1)NC(=O)[C@H](CCC(=O)O)NC(=O)[C@@H](NC(=O)[C@@H](NC(=O)[C@H](CC(=O)O)NC(=O)[C@H](CC(N)=O)NC(=O)[C@@H](NC(=O)[C@H](Cc1ccc(O)cc1)NC(=O)[C@@H](NC(=O)CNC(=O)[C@H](CCC(=O)O)NC(=O)C(C)(C)NC(=O)[C@@H](N)Cc1c[nH]cn1)[C@@H](C)O)[C@@H](C)O)C(C)C)[C@@H](C)O)C(=O)N[C@@H](CCCCN)C(=O)NCC(=O)N[C@@H](CS)C(N)=O (HELM PEPTIDE1{H.[Aib].E.G.T.Y.T.N.D.V.T.E.Y.L.E.E.E.A.A.K.E.F.C.E.W.L.I.K.G.C.[am]}$$$$V2.0),0.62 nM
5,CC[C@H](C)[C@H](NC(=O)[C@H](CS)NC(=O)[C@H](Cc1c[nH]c2ccccc12)NC(=O)[C@H](CCC(=O)O)NC(=O)[C@@H](NC(=O)[C@H](Cc1ccccc1)NC(=O)[C@H](CCC(=O)O)NC(=O)[C@H](CCCCN)NC(=O)[C@H](CS)NC(=O)[C@H](C)NC(=O)[C@H](CCC(=O)O)NC(=O)[C@H](CCC(=O)O)NC(=O)[C@H](CCC(=O)O)NC(=O)[C@H](CC(C)C)NC(=O)[C@H](Cc1ccc(O)cc1)NC(=O)[C@H](CCC(=O)O)NC(=O)[C@@H](NC(=O)[C@@H](NC(=O)[C@H](CC(=O)O)NC(=O)[C@H](CC(N)=O)NC(=O)[C@@H](NC(=O)[C@H](Cc1ccc(O)cc1)NC(=O)[C@@H](NC(=O)CNC(=O)[C@H](CCC(=O)O)NC(=O)C(C)(C)NC(=O)[C@@H](N)Cc1c[nH]cn1)[C@@H](C)O)[C@@H](C)O)C(C)C)[C@@H](C)O)[C@@H](C)CC)C(=O)N[C@@H](CCCCN)C(=O)NCC(=O)N[C@@H](CCCCN)C(=O)N1CCC[C@H]1C(=O)N[C@@H](CO)C(=O)N[C@@H](CO)C(=O)NCC(=O)N[C@@H](C)C(=O)N1CCC[C@H]1C(=O)N1CCC[C@H]1C(=O)N1CCC[C@H]1C(=O)N[C@@H](CO)C(N)=O (HELM PEPTIDE1{H.[Aib].E.G.T.Y.T.N.D.V.T.E.Y.L.E.E.E.A.C.K.E.F.I.E.W.C.I.K.G.K.P.S.S.G.A.P.P.P.S.[am]}$$$$V2.0),0.24 nM
6,CC[C@H](C)[C@H](NC(=O)[C@H](CS)NC(=O)[C@H](Cc1c[nH]c2ccccc12)NC(=O)[C@H](CCC(=O)O)NC(=O)[C@@H](NC(=O)[C@H](Cc1ccccc1)NC(=O)[C@H](CCC(=O)O)NC(=O)[C@H](CCCCN)NC(=O)[C@H](CS)NC(=O)[C@H](C)NC(=O)[C@H](CCC(=O)O)NC(=O)[C@H](CCC(=O)O)NC(=O)[C@H](CCC(=O)O)NC(=O)[C@H](CC(C)C)NC(=O)[C@H](Cc1ccc(O)cc1)NC(=O)[C@H](CCC(=O)O)NC(=O)[C@@H](NC(=O)[C@@H](NC(=O)[C@H](CC(=O)O)NC(=O)[C@H](CC(N)=O)NC(=O)[C@@H](NC(=O)[C@H](Cc1ccc(O)cc1)NC(=O)[C@@H](NC(=O)CNC(=O)[C@H](CCC(=O)O)NC(=O)C(C)(C)NC(=O)[C@@H](N)Cc1c[nH]cn1)[C@@H](C)O)[C@@H](C)O)C(C)C)[C@@H](C)O)[C@@H](C)CC)C(=O)N[C@@H](CCCCN)C(=O)NCC(=O)N[C@@H](CCCCN)C(N)=O (HELM PEPTIDE1{H.[Aib].E.G.T.Y.T.N.D.V.T.E.Y.L.E.E.E.A.C.K.E.F.I.E.W.C.I.K.G.K.[am]}$$$$V2.0),0.68 nM
